The values below come from the supplement of paper PMC10307832.

Assay in all cases: relative viability (nuclei count vs DMSO), 5 days (fraction); higher = more cells survive
Compound in the assay “KIN001-266 + Dasatinib”: CCN1CCC(CC1)N2C=C(N=N2)CNC3=CC4=C(C(=CN=C4C(=C3)Cl)C#N)NC5=CC(=C(C=C5)F)Cl [KIN001-266] + Cc1nc(Nc2ncc(C(=O)Nc3c(C)cccc3Cl)s2)cc(N2CCN(CCO)CC2)n1 [Dasatinib] (partner 0.075 µM)
In short, it runs like this: (§1)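 Relative viability equals treated-well nuclei counts divided by vehicle-well nuclei counts. Counts came from 4× images of lung cancer cell lines grown in 1536-well plates for 5 days after pin-tool dosing on the day after seeding. Dosing used one drug alone or a fixed anchor-drug dose plus five library-drug doses (not always all listed) in √10 steps, and values are medians of duplicate plates.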

Compound in the assay “KIN001-266 + Bortezomib”: CCN1CCC(CC1)N2C=C(N=N2)CNC3=CC4=C(C(=CN=C4C(=C3)Cl)C#N)NC5=CC(=C(C=C5)F)Cl [KIN001-266] + CC(C)C[C@H](NC(=O)[C@H](Cc1ccccc1)NC(=O)c1cnccn1)B(O)O [Bortezomib] (partner 0.002 µM)
In short, it runs like this: as §1

Compound in the assay “KIN001-266 + Palbociclib”: CCN1CCC(CC1)N2C=C(N=N2)CNC3=CC4=C(C(=CN=C4C(=C3)Cl)C#N)NC5=CC(=C(C=C5)F)Cl [KIN001-266] + CC(=O)c1c(C)c2cnc(Nc3ccc(N4CCNCC4)cn3)nc2n(C2CCCC2)c1=O [Palbociclib] (partner 0.5 µM)
Summed up: as §1

Compound in the assay “KIN001-266 + Alpelisib”: CCN1CCC(CC1)N2C=C(N=N2)CNC3=CC4=C(C(=CN=C4C(=C3)Cl)C#N)NC5=CC(=C(C=C5)F)Cl [KIN001-266] + Cc1nc(NC(=O)N2CCC[C@H]2C(N)=O)sc1-c1ccnc(C(C)(C)C(F)(F)F)c1 [Alpelisib] (partner 2 µM)
Summed up: as §1

As for ABC-1, the relative viability worked out at 0.521 with KIN001-266 + Dasatinib (first compound 0.08 µM); 0.632 with KIN001-266 + Dasatinib (first compound 0.253 µM); 0.652 in the assay with KIN001-266 + Dasatinib (first compound 0.8 µM); 0.489 with KIN001-266 + Dasatinib (first compound 2.53 µM); 0.399 in the assay with KIN001-266 + Dasatinib (first compound 8 µM); 0.269 with KIN001-266 + Bortezomib (first compound 0.08 µM). The relative viability in the assay with KIN001-266 + Bortezomib (first compound 0.253 µM) stood at 0.344; with KIN001-266 + Bortezomib (first compound 0.8 µM) it was 0.346; with KIN001-266 + Bortezomib (first compound 2.53 µM), 0.288; with KIN001-266 + Bortezomib (first compound 8 µM) it was 0.274; in the assay with KIN001-266 + Palbociclib (first compound 0.08 µM), 0.789; in the assay with KIN001-266 + Palbociclib (first compound 0.253 µM), 0.799. Besides, the relative viability came out at 0.598 in the assay with KIN001-266 + Palbociclib (first compound 0.8 µM); 0.65 with KIN001-266 + Palbociclib (first compound 2.53 µM); 0.558 with KIN001-266 + Palbociclib (first compound 8 µM); 1.23 with KIN001-266 + Alpelisib (first compound 0.08 µM); 1.08 with KIN001-266 + Alpelisib (first compound 0.253 µM); 1.09 with KIN001-266 + Alpelisib (first compound 0.8 µM). For the same cell line, the relative viability came out at 0.812 with KIN001-266 + Alpelisib (first compound 2.53 µM) and 0.976 with KIN001-266 + Alpelisib (first compound 8 µM).

Consider HCC-15, for which the relative viability amounted to 0.683 in the assay with KIN001-266 + Dasatinib (first compound 0.08 µM); 0.592 with KIN001-266 + Dasatinib (first compound 0.253 µM); 0.566 with KIN001-266 + Dasatinib (first compound 0.8 µM); 0.596 with KIN001-266 + Dasatinib (first compound 2.53 µM); 0.448 with KIN001-266 + Dasatinib (first compound 8 µM); 1.01 with KIN001-266 + Bortezomib (first compound 0.08 µM). Also, the relative viability with KIN001-266 + Bortezomib (first compound 0.253 µM) was 1.04; with KIN001-266 + Bortezomib (first compound 0.8 µM) it was 0.868; in the assay with KIN001-266 + Bortezomib (first compound 2.53 µM), 0.864; with KIN001-266 + Bortezomib (first compound 8 µM) it was 0.662; in the assay with KIN001-266 + Palbociclib (first compound 0.08 µM), 0.707; with KIN001-266 + Palbociclib (first compound 0.253 µM), 0.806. In addition, the relative viability with KIN001-266 + Palbociclib (first compound 0.8 µM) stood at 0.593; in the assay with KIN001-266 + Palbociclib (first compound 2.53 µM) it was 0.608; in the assay with KIN001-266 + Palbociclib (first compound 8 µM), 0.509; with KIN001-266 + Alpelisib (first compound 0.08 µM), 0.867; with KIN001-266 + Alpelisib (first compound 0.253 µM), 0.849; with KIN001-266 + Alpelisib (first compound 0.8 µM) it was 0.766. Also, the results for the relative viability in the assay with KIN001-266 + Alpelisib (first compound 2.53 µM) and with KIN001-266 + Alpelisib (first compound 8 µM) were 0.781 and 0.586, respectively.

Consider PC-3 [JPC-3], for which the relative viability in the assay with KIN001-266 + Dasatinib (first compound 0.08 µM) was found to be 0.982; with KIN001-266 + Dasatinib (first compound 0.253 µM), 1.01; with KIN001-266 + Dasatinib (first compound 0.8 µM) it was 0.912; in the assay with KIN001-266 + Dasatinib (first compound 2.53 µM), 1.01; with KIN001-266 + Dasatinib (first compound 8 µM), 0.847; in the assay with KIN001-266 + Bortezomib (first compound 0.08 µM), 0.786. The relative viability stood at 0.846 in the assay with KIN001-266 + Bortezomib (first compound 0.253 µM); 0.813 with KIN001-266 + Bortezomib (first compound 0.8 µM); 0.736 with KIN001-266 + Bortezomib (first compound 2.53 µM); 0.764 with KIN001-266 + Bortezomib (first compound 8 µM); 0.539 in the assay with KIN001-266 + Palbociclib (first compound 0.08 µM); 0.544 with KIN001-266 + Palbociclib (first compound 0.253 µM). The relative viability came out at 0.542 with KIN001-266 + Palbociclib (first compound 0.8 µM); 0.537 with KIN001-266 + Palbociclib (first compound 2.53 µM); 0.549 with KIN001-266 + Palbociclib (first compound 8 µM); 1.04 in the assay with KIN001-266 + Alpelisib (first compound 0.08 µM); 1.02 in the assay with KIN001-266 + Alpelisib (first compound 0.253 µM); 0.957 with KIN001-266 + Alpelisib (first compound 0.8 µM). Also, the relative viability turned out to be 0.983 with KIN001-266 + Alpelisib (first compound 2.53 µM) and 0.896 with KIN001-266 + Alpelisib (first compound 8 µM).

For the cell line NCI-H1993, the relative viability in the assay with KIN001-266 + Dasatinib (first compound 0.08 µM) came out at 0.767; with KIN001-266 + Dasatinib (first compound 0.253 µM) it was 0.621; in the assay with KIN001-266 + Dasatinib (first compound 0.8 µM), 0.521; with KIN001-266 + Dasatinib (first compound 2.53 µM), 0.553; with KIN001-266 + Dasatinib (first compound 8 µM), 0.568; with KIN001-266 + Bortezomib (first compound 0.08 µM), 1.04. Besides, the relative viability turned out to be 1.29 with KIN001-266 + Bortezomib (first compound 0.253 µM); 1.06 with KIN001-266 + Bortezomib (first compound 0.8 µM); 1.01 with KIN001-266 + Bortezomib (first compound 2.53 µM); 0.858 with KIN001-266 + Bortezomib (first compound 8 µM); 0.68 with KIN001-266 + Palbociclib (first compound 0.08 µM); 0.653 in the assay with KIN001-266 + Palbociclib (first compound 0.253 µM). For the same cell line, the relative viability with KIN001-266 + Palbociclib (first compound 0.8 µM) came to 0.66; in the assay with KIN001-266 + Palbociclib (first compound 2.53 µM), 0.688; with KIN001-266 + Palbociclib (first compound 8 µM) it was 0.58; in the assay with KIN001-266 + Alpelisib (first compound 0.08 µM), 0.664; with KIN001-266 + Alpelisib (first compound 0.253 µM), 0.682; with KIN001-266 + Alpelisib (first compound 0.8 µM), 0.692. Besides, the relative viability in the assay with KIN001-266 + Alpelisib (first compound 2.53 µM) was found to be 0.642; with KIN001-266 + Alpelisib (first compound 8 µM), 0.634.

On to NCI-H1915, for which the relative viability worked out at 0.369 with KIN001-266 + Dasatinib (first compound 0.08 µM); 0.316 with KIN001-266 + Dasatinib (first compound 0.253 µM); 0.357 with KIN001-266 + Dasatinib (first compound 0.8 µM); 0.396 in the assay with KIN001-266 + Dasatinib (first compound 2.53 µM); 0.292 with KIN001-266 + Dasatinib (first compound 8 µM); 0.979 with KIN001-266 + Bortezomib (first compound 0.08 µM). Besides, the relative viability stood at 0.986 with KIN001-266 + Bortezomib (first compound 0.253 µM); 0.997 in the assay with KIN001-266 + Bortezomib (first compound 0.8 µM); 0.877 with KIN001-266 + Bortezomib (first compound 2.53 µM); 0.898 in the assay with KIN001-266 + Bortezomib (first compound 8 µM); 0.546 with KIN001-266 + Palbociclib (first compound 0.08 µM); 0.599 with KIN001-266 + Palbociclib (first compound 0.253 µM). The relative viability turned out to be 0.514 with KIN001-266 + Palbociclib (first compound 0.8 µM); 0.543 with KIN001-266 + Palbociclib (first compound 2.53 µM); 0.389 in the assay with KIN001-266 + Palbociclib (first compound 8 µM); 1.05 with KIN001-266 + Alpelisib (first compound 0.08 µM); 1.06 in the assay with KIN001-266 + Alpelisib (first compound 0.253 µM); 1.01 in the assay with KIN001-266 + Alpelisib (first compound 0.8 µM). In addition, the values for the relative viability in the assay with KIN001-266 + Alpelisib (first compound 2.53 µM) and with KIN001-266 + Alpelisib (first compound 8 µM) were 1.04 and 0.97, respectively.

Consider RERF-LC-KJ, for which the relative viability came out at 0.951 with KIN001-266 + Dasatinib (first compound 0.08 µM); 0.922 with KIN001-266 + Dasatinib (first compound 0.253 µM); 0.757 with KIN001-266 + Dasatinib (first compound 0.8 µM); 0.725 with KIN001-266 + Dasatinib (first compound 2.53 µM); 0.417 with KIN001-266 + Dasatinib (first compound 8 µM); 1.11 in the assay with KIN001-266 + Bortezomib (first compound 0.08 µM). The relative viability is 1.23 in the assay with KIN001-266 + Bortezomib (first compound 0.253 µM); 1.08 with KIN001-266 + Bortezomib (first compound 0.8 µM); 1.01 with KIN001-266 + Bortezomib (first compound 2.53 µM); 0.82 with KIN001-266 + Bortezomib (first compound 8 µM); 1.14 in the assay with KIN001-266 + Palbociclib (first compound 0.08 µM); 1.07 in the assay with KIN001-266 + Palbociclib (first compound 0.253 µM). Besides, the relative viability with KIN001-266 + Palbociclib (first compound 0.8 µM) stood at 1.13; with KIN001-266 + Palbociclib (first compound 2.53 µM) it was 1.11; in the assay with KIN001-266 + Palbociclib (first compound 8 µM), 0.83; with KIN001-266 + Alpelisib (first compound 0.08 µM), 0.863; with KIN001-266 + Alpelisib (first compound 0.253 µM) it was 0.785; in the assay with KIN001-266 + Alpelisib (first compound 0.8 µM) it was 0.856. Moreover, the relative viability with KIN001-266 + Alpelisib (first compound 2.53 µM) is 0.832; with KIN001-266 + Alpelisib (first compound 8 µM), 0.569.
